row,Compound,pKa
1,COc1cc(C(C)O)ccc1OCCC[NH+]1CCC(c2noc3cc(F)ccc23)CC1 (stereo not drawn),8.25
2,CCCCCCCCc1ccc(CCC([NH3+])(CO)CO)cc1,8.52
3,CC(=O)N1CCN(c2ccc(OCc3cc4cnc(C#N)nc4n3CCC3CCCCC3)cc2)CC1,3.3
4,O=c1[nH]c(-c2ccc(C(F)(F)F)cc2)nc2c1CSCC2,7.94
5,O=NC(=O)CCc1ccc(C[NH+]2CCC(c3c[nH]c4ccccc34)CC2)cc1,8.55
6,COc1cccc(OC)c1-c1ccc(C[C@H](NC(=O)c2c(Cl)cccc2Cl)C(=O)[O-])cc1,3.41
7,Cc1c(-c2ccccc2)c(=O)oc2cc(O)ccc12,7.74
8,O=NC(=O)CCc1ccc(C[NH2+]CC23CC4CC(CC(C4)C2)C3)cc1,8.85
9,CCC1CCCCN1C(=O)c1cnc(Nc2ccc(C)nc2)c(Cl)c1 (stereo not drawn),5.3
10,Cn1c(-c2ccc(C[NH+](C)C)cc2)cc2onc(-c3ccccc3)c2c1=O,8.38
11,Cc1[nH]c2ccccc2c1C1CC[NH+](Cc2ccc(CCC(=O)N=O)cc2)C1 (stereo not drawn),8.59
12,CCCCC(=O)N1CCC(CNc2nc3c(s2)CCOc2ccc(F)cc2-3)CC1,3.69
13,CNC(=O)c1c(NCC2CCC3(CCC3)CC2)nc(C#N)nc1OC1CC(C)(C)[NH2+]C(C)(C)C1,9.2
14,Cc1cc(C)nc(N2CCC3(CCCN(Cc4c[nH]c5ccccc45)C3=O)CC2)n1,4.94
15,Cc1[nH]c2ccccc2c1CC[NH+]1CCc2cc(CCC(=O)N=O)ccc2C1,7.96
16,CC(C)[NH+](CCc1c[nH]c2ccccc12)Cc1ccc(CCC(=O)N=O)cc1,8.66
17,Cc1ncc(-c2ccc(C(F)(F)F)cc2)c(NC2C3CC4CC(C3)CC2C4)n1 (stereo not drawn),6
18,COc1ccc(SCCc2ccncc2)cc1,5.6
19,CC(C)(C)Cn1c(CN2C(=O)CC3(CC[NH2+]CC3)C2=O)cc2cnc(C#N)nc21,9.2
20,CNC(=O)c1c(NCC2CCC3(CCC3)CC2)nc(C#N)nc1OCCC1CC[NH+](C)CC1,10.2
21,CN1c2ccc(C#N)cc2N=C(c2ccc(C(=O)[O-])cc2)c2cc3c(cc21)C(C)(C)CCC3(C)C,3.5
22,Cc1ccnc(N2CCC3(CCCN(Cc4c[nH]c5ccccc45)C3=O)CC2)n1,4.2
23,O=c1cc(CSc2cccc(F)c2F)nc2cc(-c3ccco3)[nH]n12,7.5
24,CC#CCn1c(N2CC[NH2+]CC2)c(C#N)c2ncn(CC(=O)c3cccc(OC)c3)c(=O)c21,8.2
25,CC[C@H](C(=O)NO)[C@H](C(=O)N1CCCC[C@H]1C(=O)NC)c1ccc(Cl)cc1,9.2
26,CS(=O)(=O)Nn1c(=O)[nH]c2cc(C(F)(F)F)c(N3CCOCC3)cc2c1=O,8.35

row,Compound,pKa
1,CC1CCCN(C(=O)c2ccc(Nc3ccc(Cl)cc3)nc2)C1 (stereo not drawn),3.4
2,Cc1nc(N2CCN(CC3CC3)C2=O)sc1C(=O)NCc1cccnc1,5
3,Cc1onc(-c2ccccc2)c1-c1ccc(S(N)(=O)=O)cc1,10
4,O=S(=O)(c1ccccc1)N(CC(F)(F)F)c1ccc(C(O)(C(F)(F)F)C(F)(F)F)cc1,8.2
5,CS(=O)(=O)c1ccc(C(=O)Nc2ccc(Cl)c(-c3ccccn3)c2)c(Cl)c1,3.84
6,Cc1nc[n+]([O-])c(C)c1C(=O)N1CCC(C)([NH+]2CCC(N(c3ccccc3)c3ccccc3)CC2)CC1,8.5
7,CC(=O)N1CCC(CNc2nc3c(s2)CCCc2ccc(F)cc2-3)CC1,4.31
8,COc1ccc(SC)c2c1C[C@@H]1[C@@H](C2)OCC[NH+]1C,6.25
9,COc1ccc(-c2c(C)nc3c(-c4ccccn4)cnn3c2N)cc1,6.07
10,O=C([O-])COc1ccc(Cl)cc1C1CCCCC1,3.51
11,CC(C)N(CCCCOCC(=O)[O-])c1cnc(-c2ccccc2)c(-c2ccccc2)n1,3.38
12,Cc1ccc(-c2ccc3c(c2)C=C(C(=O)Nc2ccc(C[NH+](C)C4CCOCC4)cc2)CCC3)cc1,8.3
13,C[NH+](CCC(=O)N1CCN(c2ccc(F)c(F)c2)CC1)CCC1c2ccccc2-c2ccccc21,7.8
14,C[NH+](CCC(=O)N1CCN(c2ccc(F)c(F)c2)CC1)CCC1c2ccccc2Oc2ccccc21,7.9
15,O=C([O-])c1ccc(NC(=O)c2cn(-c3ccccc3)nc2-c2ccc(Cl)cc2)cc1,4.2
16,NS(=O)(=O)Oc1ccc2nc(C=C3C4CC5CC(C4)CC3C5)oc2c1,8.26
17,CC(C)Cn1cnc2c(N)nc3ccccc3c21,7.24
18,O=C1NC(=O)C(c2c[nH]c3ccccc23)=C1c1nc(N2CCOCC2)nc2ccccc12,9.3
19,C/C(=C\c1cccc(C)n1)[C@@H]1C[C@@H]2O[C@]2(C)CCC[C@H](C)[C@H](O)[C@@H](C)C(=O)C(C)(C)[C@@H](O)CC(=O)O1,5.5
20,Cc1cc(N2CCCC2)cc(/C=C/c2cccc(C(F)(F)F)c2)[nH+]1,9.43
21,CC(=O)Nc1cccc2c1c(Sc1ccc(Cl)cc1)c(C)n2CC(=O)[O-],2.92
22,Fc1ccc2c(/C=C/c3nn[n-]n3)c[nH]c2c1,4.94
23,O=C1CN=C(c2ccccc2)c2cc3ccccc3cc2N1,3.8
24,CN(CCO)c1cc2c(=O)n(NS(C)(=O)=O)c(=O)[nH]c2cc1C(F)(F)F,8.3
25,O=C(NCC[NH+]1CCC(n2c(=O)[nH]c3cc(F)ccc32)CC1)c1ccc(F)cc1,8.77
26,CC(C)(C)c1ccc(S(=O)(=O)Nc2ccc(Cl)cc2C(=O)c2cc[n+]([O-])cc2)cc1,6.87

row,Compound,pKa
1,C=CCNc1ccc2c(c1)c(-c1ccc(C(C)C)cc1)nc(=O)n2C(C)C,2.9
2,Brc1ccc(C2CN3C=CSC3=[NH+]2)cc1 (stereo not drawn),8.55
3,CC(C)(C)[NH2+]C[C@H](O)c1cc(Cl)c(N)c(Cl)c1,9.7
4,CC(C)n1c(/C=C/[C@H](O)C[C@H](O)CC(=O)[O-])c(-c2ccc(F)cc2)c2ccccc21,4.5
5,Cc1ccc(C)n1-c1ccc(Cl)cc1C(=O)[O-],3.35
6,CCN1c2ccc(C#N)cc2N=C(c2ccc(C(=O)[O-])c(F)c2)c2cc3c(cc21)C(C)(C)CCC3(C)C,3
7,O=C([O-])COc1ccc(Cl)cc1C1CCCCCC1,3.48
8,CC(C)[NH+](CCc1c(C(C)(C)O)[nH]c2ccccc12)Cc1ccc(CCC(=O)N=O)cc1,9.01
9,CNC(=O)c1c(NCC2CCC3(CCC3)CC2)nc(C#N)nc1OCC1CC[NH+](C)CC1,10.7
10,Cc1nc2ccccn2c1C(=O)NCc1ccc(-c2ccccc2)cc1,4.7
11,Cc1ccc(-c2cc(C(F)(F)F)nn2-c2ccc(S(N)(=O)=O)cc2)cc1,9.46
12,COc1ccc(-c2ccc(C(=O)Nc3ccc4c(c3)CCC(C[NH+](C)C)C4)cc2)cc1 (stereo not drawn),9.1
13,O=c1[nH]c(-c2ccc(C(F)(F)F)cc2)nc2c1CCOC2,7.87
14,CC(C)(C)Cn1c(Cc2ccc(NS(N)(=O)=O)cc2)cc2cnc(C#N)nc21,9.3
15,Cc1ncccc1Oc1ncnc(OC2CCN(C(=O)OC(C)C)CC2)c1C,4.18
16,CS(=O)(=O)Nn1c(=O)[nH]c2cc(C(F)(F)F)c(N3CCCOCC3)cc2c1=O,8.4
17,O=c1[nH]c2c(Cc3nn[n-]n3)c3ccccc3n2c2ccccc12,4.42
18,CNC(=O)c1ccccc1Nc1nc(Nc2ccc(N3CCOCC3)cc2OC)ncc1Cl,4.27
19,Cc1nc(N2CCN(Cc3ccccc3)C2=O)sc1C(=O)NCc1ccccn1,4.28
20,Clc1ccc(-c2ccc(-c3ccnc(N4CC[NH2+]CC4)n3)s2)cc1,8.9
21,CCOC(=O)c1c(C)cc2nc(COC(=O)NCCO)n(-c3ccccc3S(=O)(=O)NC)c(=O)c2c1C,10.6
22,COc1ccnc(N2CCC3(CCCN(Cc4c[nH]c5ccccc45)C3=O)CC2)n1,5.28
23,Cc1nc2cccc(C(F)(F)F)c2c(=O)n1-c1ccc(OC2CC[NH+](C3CCC3)CC2)cc1,9
24,O=C([O-])c1ccc(-c2nc(-c3cccc(C(F)(F)F)c3)cs2)cc1,4.1
25,O=C([O-])c1ccc(-c2ccccc2)cc1,3.9
26,CN(n1c(=O)[nH]c2cc(Cl)ccc2c1=O)S(C)(=O)=O,8.4

row,Compound,pKa
1,CS(=O)(=O)Nn1c(=O)[nH]c2cc(C(F)(F)F)c(N)cc2c1=O,8.6
2,O=C1c2ccccc2-[n+]2ccc3c([nH]c4ccccc43)c21,8.7
3,Cc1ncc(-c2ccc(C(F)(F)F)cc2)c(NC2CCCCCC2)n1,6
4,CC(C)COC(=O)Nc1ccc(-c2cnc3c(-c4ccc(N5CC[NH+](C)CC5)cc4)cnn3c2N)cc1,8.2
5,[NH3+]C(CO)c1ccccc1 (stereo not drawn),8.4
6,CCOc1ccc2nc(S(N)(=O)=O)sc2c1,8.36
7,CC(=C(C#N)C#N)c1ccc2cc(N(C)CCF)ccc2c1,2.4
8,CS(=O)(=O)Nn1c(=O)[nH]c2cc(C(F)(F)F)ccc2c1=O,8.35
9,Cc1ccc(Nc2ncc(C(=O)N3CCCCC3)cc2Cl)cn1,5.2
10,C/C(=C\c1ccc(C)cn1)[C@@H]1C[C@@H]2O[C@]2(C)CCC[C@H](C)[C@H](O)[C@@H](C)C(=O)C(C)(C)[C@@H](O)CC(=O)O1,4.5
11,Clc1ccc(OCc2nn[n-]n2)c(C2CCCCC2)c1,3.87
12,N#Cc1ncc2cc(COc3cccc(CCC(=O)[O-])c3)n(CCC3CCCCC3)c2n1,4.5
13,OCCn1cc(-c2cnc3nnn(Cc4ccc5ncccc5c4)c3n2)cn1,4.6
14,CC(=O)Nc1cc(Cl)ccc1/C=C/C(=O)N1CC[NH+](Cc2ccc(F)cc2)C[C@H]1C,5.9
15,CC(=O)N1CCN(c2ccc(OCc3cc4cnc(C#N)nc4n3CCC3CCC(F)(F)CC3)cc2)CC1,3.6
16,Cc1ccc(-c2ncc(Cl)cc2-c2ccc(S(C)(=O)=O)cc2)cn1,4.63
17,Cc1ccc2c(=O)c3cccc(CC(=O)[O-])c3oc2c1C,3.8
18,C/C(=C\c1cc(C)ccn1)[C@@H]1C[C@@H]2O[C@]2(C)CCC[C@H](C)[C@H](O)[C@@H](C)C(=O)C(C)(C)[C@@H](O)CC(=O)O1,5.5
19,Cc1c(CC(=O)[O-])c2cccnc2n1S(=O)(=O)c1ccc(Cl)cc1,3.86
20,COc1cc(C(C)=O)ccc1OCCC[NH+]1CCC(c2noc3cc(F)ccc23)CC1,8.2
21,Cc1cccc(C)c1C(=O)N1CCC(C)([NH+]2CCC(N(c3ccccc3)c3ccccc3)CC2)CC1,8.35
22,Cc1ccc(Nc2c(F)cccc2Cl)c(CC(=O)[O-])c1,4.2
23,CCCCC[C@H](O)CC[C@@H]1[C@H]2Cc3cccc(OCC(=O)[O-])c3C[C@H]2C[C@H]1O,3.37
24,COc1ccc(OC)c(S(=O)(=O)N2CCC(CN3CC[NH+](Cc4ccc(F)cc4)CC3)CC2)c1,7.32
25,CC(C)N(CCCCOCC(=O)NS(C)(=O)=O)c1cnc(-c2ccccc2)c(-c2ccccc2)n1,3.37

# Source: the pKa sets of Baltruschat and Czodrowski (2020)
